Assay results reported in US9150577B2, “Heterocyclic compounds containing an indole core” (Boehringer Ingelheim International GmbH, priority 2009, dated 2015).

Target: Human RSK2 (Homo sapiens (Human), UniProt P51812)
Test: Human RSK2 assay (Kinase Glo Plus, residual ATP);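 further: recombinant human RSK2 phosphorylating a substrate peptide, 90 min at 28 °C, leftover ATP read by luminescence, RLU scaled between no-kinase background and uninhibited kinase controls, 4-parameter fit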
Type: biochemical

Human RSK2, sequence (P51812 whole entry): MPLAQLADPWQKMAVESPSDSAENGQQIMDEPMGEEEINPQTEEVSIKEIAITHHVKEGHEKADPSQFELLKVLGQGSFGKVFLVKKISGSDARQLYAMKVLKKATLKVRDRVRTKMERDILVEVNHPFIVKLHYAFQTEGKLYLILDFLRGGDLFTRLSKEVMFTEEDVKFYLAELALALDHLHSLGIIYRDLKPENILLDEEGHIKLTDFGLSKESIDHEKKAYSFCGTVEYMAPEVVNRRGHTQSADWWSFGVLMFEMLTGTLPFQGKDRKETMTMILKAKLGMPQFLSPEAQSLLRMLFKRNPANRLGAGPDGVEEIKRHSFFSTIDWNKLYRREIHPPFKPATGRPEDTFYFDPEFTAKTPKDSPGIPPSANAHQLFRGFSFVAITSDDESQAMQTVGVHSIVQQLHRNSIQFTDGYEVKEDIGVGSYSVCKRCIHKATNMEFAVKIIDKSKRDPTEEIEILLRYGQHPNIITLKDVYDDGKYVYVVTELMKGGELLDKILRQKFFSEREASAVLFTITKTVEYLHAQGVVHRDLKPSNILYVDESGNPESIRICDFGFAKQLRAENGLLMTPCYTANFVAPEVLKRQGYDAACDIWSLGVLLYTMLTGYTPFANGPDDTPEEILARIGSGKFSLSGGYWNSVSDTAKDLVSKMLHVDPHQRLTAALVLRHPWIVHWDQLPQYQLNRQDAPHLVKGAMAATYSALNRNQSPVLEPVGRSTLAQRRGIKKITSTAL

IC50	SMILES
1.8 nM	CC(C)n1c(NC(=O)c2ccc3cc4n(c3c2)[C@@H](C)[C@@H](C)CNC4=O)nc2ccccc21 (relative stereo) [Example 70, cis-4,5-dimethyl-1-oxo-N-[1-(propan-2-yl)-1H-benzimidazol-2-yl]-2,3,4,5-tetrahydro-1H-[1,4]diazepino[1,2-a]indole-8-carboxamide]
0.89 nM	CC1(C)CNC(=O)c2cc3ccc(C(=O)Nc4nc5ccccc5[nH]4)cc3n21 [Example 56, N-(1H-benzimidazol-2-yl)-4,4-dimethyl-1-oxo-1,2,3,4-tetrahydropyrazino[1,2-a]indole-7-carboxamide]
180 nM	O=C(Nc1ccc2scnc2c1)c1ccc2cc3n(c2c1)CCCNC3=O [Example 203, N-(1,3-benzothiazol-5-yl)-1-oxo-2,3,4,5-tetrahydro-1H-[1,4]diazepino[1,2-a]indole-8-carboxamide]
15 nM	CC1(C)CNC(=O)c2cc3ccc(C(=O)Nc4cc(-c5ccccc5)no4)cc3n21 [Example 201, 4,4-dimethyl-1-oxo-N-(3-phenyl-1,2-oxazol-5-yl)-1,2,3,4-tetrahydropyrazino[1,2-a]indole-7-carboxamide]
3.7 nM	Cn1cc(NC(=O)c2ccc3cc4n(c3c2)C(C)(C)CNC4=O)nc1C(=O)NC1CCCC1 [Example 233, N-[2-(cyclopentylcarbamoyl)-1-methyl-1H-imidazol-4-yl]-4,4-dimethyl-1-oxo-1,2,3,4-tetrahydropyrazino[1,2-a]indole-7-carboxamide]
89 nM	CC(C)c1ccc(NC(=O)c2ccc3cc4n(c3c2)CCCNC4=O)cc1 [Example 146, 1-oxo-N-[4-(propan-2-yl)phenyl]-2,3,4,5-tetrahydro-1H-[1,4]diazepino[1,2-a]indole-8-carboxamide]
0.18 nM	C[C@@H]1NC(=O)c2cc3ccc(C(=O)Nc4nc5ccccc5n4CCCN(C)C)cc3n2[C@@H]1C [Example 139, (3S,4R)-N-{1-[3-(dimethylamino)propyl]-1H-benzimidazol-2-yl}-3,4-dimethyl-1-oxo-1,2,3,4-tetrahydropyrazino[1,2-a]indole-7-carboxamide]
14 nM	CN1CCC(n2c(NC(=O)c3ccc4cc5n(c4c3)CCCNC5=O)nc3ccccc32)CC1 [Example 77, N-[1-(1-methylpiperidin-4-yl)-1H-benzimidazol-2-yl]-1-oxo-2,3,4,5-tetrahydro-1H-[1,4]diazepino[1,2-a]indole-8-carboxamide]
8.5 nM	C[C@@H]1NC(=O)c2cc3ccc(C(=O)Nc4nc5ccccc5n4CCCN(C)C)cc3n2[C@H]1C (relative stereo) [Example 91, N-{1-[3-(dimethylamino)propyl]-1H-benzimidazol-2-yl}-trans-3,4-dimethyl-1-oxo-1,2,3,4-tetrahydropyrazino[1,2-a]indole-7-carboxamide]
125 nM	CN(C)CCNC(=O)c1ccccc1NC(=O)c1ccc2cc3n(c2c1)CCCNC3=O [Example 230, N-(2-{[2-(dimethylamino)ethyl]carbamoyl}phenyl)-1-oxo-2,3,4,5-tetrahydro-1H-[1,4]diazepino[1,2-a]indole-8-carboxamide]
96 nM	COc1ccnc(NC(=O)c2ccc3cc4n(c3c2)CCCNC4=O)c1 [Example 206, N-(4-methoxypyridin-2-yl)-1-oxo-2,3,4,5-tetrahydro-1H-[1,4]diazepino[1,2-a]indole-8-carboxamide]
0.64 nM	CCn1c(NC(=O)c2ccc3cc4n(c3c2)[C@@H](C)[C@@H](C)NC4=O)nc2ccccc21 (relative stereo) [Example 79, N-(1-ethyl-1H-benzimidazol-2-yl)-cis-3,4-dimethyl-1-oxo-1,2,3,4-tetrahydropyrazino[1,2-a]indole-7-carboxamide]
17.5 nM	C[C@H]1CNC(=O)c2cc3ccc(C(=O)Nc4cnn(Cc5ccccc5)c4)cc3n21 [Example 133, (4S)-N-(1-benzyl-1H-pyrazol-4-yl)-4-methyl-1-oxo-1,2,3,4-tetrahydropyrazino[1,2-a]indole-7-carboxamide]
21 nM	NC(=O)c1ccccc1NC(=O)c1ccc2cc3n(c2c1)CCCNC3=O [Example 215, N-(2-carbamoylphenyl)-1-oxo-2,3,4,5-tetrahydro-1H-[1,4]diazepino[1,2-a]indole-8-carboxamide]
32 nM	CC1CCNC(=O)c2cc3ccc(C(=O)Nc4cc(C(C)(C)C)on4)cc3n21 (centres unmarked) [Example 160, N-(5-tert-butyl-1,2-oxazol-3-yl)-5-methyl-1-oxo-2,3,4,5-tetrahydro-1H-[1,4]diazepino[1,2-a]indole-8-carboxamide]
0.63 nM	CCn1c(NC(=O)c2ccc3cc4n(c3c2)C(C)CNC4=O)nc2ccccc21 (centres unmarked) [Example 83, N-(1-ethyl-1H-benzimidazol-2-yl)-4-methyl-1-oxo-1,2,3,4-tetrahydropyrazino[1,2-a]indole-7-carboxamide]
160 nM	Cc1cccc(-c2cc(NC(=O)c3ccc4cc5n(c4c3)CCCNC5=O)on2)c1 [Example 200, N-[3-(3-methylphenyl)-1,2-oxazol-5-yl]-1-oxo-2,3,4,5-tetrahydro-1H-[1,4]diazepino[1,2-a]indole-8-carboxamide]
7.3 nM	CC(C)n1c(NC(=O)c2ccc3cc4n(c3c2)C(C)CNC4=O)nc2ccccc21 (centres unmarked) [Example 74, 4-methyl-1-oxo-N-[1-(propan-2-yl)-1H-benzimidazol-2-yl]-1,2,3,4-tetrahydropyrazino[1,2-a]indole-7-carboxamide]

IC50	SMILES
70 nM	O=C(Nc1ccc2ccccc2n1)c1ccc2cc3n(c2c1)CCCNC3=O [Example 5, 1-oxo-N-(quinolin-2-yl)-2,3,4,5-tetrahydro-1H-[1,4]diazepino[1,2-a]indole-8-carboxamide]
10.9 nM	CCCNC(=O)c1nc(NC(=O)c2ccc3cc4n(c3c2)C(C)CNC4=O)sc1C(C)C (centres unmarked) [Example 235, 4-methyl-1-oxo-N-[5-(propan-2-yl)-4-(propylcarbamoyl)-1,3-thiazol-2-yl]-1,2,3,4-tetrahydropyrazino[1,2-a]indole-7-carboxamide]
10 nM	Cc1nc2ccc(NC(=O)c3ccc4cc5n(c4c3)CCCNC5=O)cc2s1 [Example 205, N-(2-methyl-1,3-benzothiazol-6-yl)-1-oxo-2,3,4,5-tetrahydro-1H-[1,4]diazepino[1,2-a]indole-8-carboxamide]
34.5 nM	CCc1cc(NC(=O)c2ccc3cc4n(c3c2)CCCNC4=O)no1 [Example 181, N-(5-ethyl-1,2-oxazol-3-yl)-1-oxo-2,3,4,5-tetrahydro-1H-[1,4]diazepino[1,2-a]indole-8-carboxamide]
540 nM	CN(C)CCCn1c(NC(=O)c2ccc3cc4n(c3c2)CC2(CCNCC2)CNC4=O)nc2ccccc21 [Example 236, N-{1-[3-(dimethylamino)propyl]-1H-benzimidazol-2-yl}-1-oxo-2,3-dihydro-1H-spiro[1,4-diazepino[1,2-a]indole-4,4′-piperidine]-8-carboxamide]
11 nM	CC(C)CCn1cc(NC(=O)c2ccc3cc4n(c3c2)CCCNC4=O)cn1 [Example 35, N-[1-(3-methylbutyl)-1H-pyrazol-4-yl]-1-oxo-2,3,4,5-tetrahydro-1H-[1,4]diazepino[1,2-a]indole-8-carboxamide]
8.1 nM	CC(C)n1ncc2cc(NC(=O)c3ccc4cc5n(c4c3)[C@@H](C)[C@@H](C)NC5=O)cnc21 (relative stereo) [Example 18, cis-3,4-dimethyl-1-oxo-N-[1-(propan-2-yl)-1H-pyrazolo[3,4-b]pyridin-5-yl]-1,2,3,4-tetrahydropyrazino[1,2-a]indole-7-carboxamide]
17 nM	COc1cc(NC(=O)c2ccc3cc4n(c3c2)CCCNC4=O)ccn1 [Example 204, N-(2-methoxypyridin-4-yl)-1-oxo-2,3,4,5-tetrahydro-1H-[1,4]diazepino[1,2-a]indole-8-carboxamide]
400 nM	COc1ccccc1NC(=O)c1ccc2cc3n(c2c1)CCCNC3=O [Example 147, N-(2-methoxyphenyl)-1-oxo-2,3,4,5-tetrahydro-1H-[1,4]diazepino[1,2-a]indole-8-carboxamide]
0.59 nM	CC1CNC(=O)c2cc3ccc(C(=O)Nc4nc5ccccc5[nH]4)cc3n21 (centres unmarked) [Example 57, N-(1H-benzimidazol-2-yl)-4-methyl-1-oxo-1,2,3,4-tetrahydropyrazino[1,2-a]indole-7-carboxamide]
16 nM	CCCc1cc(NC(=O)c2ccc3cc4n(c3c2)CCCNC4=O)on1 [Example 202, 1-oxo-N-(3-propyl-1,2-oxazol-5-yl)-2,3,4,5-tetrahydro-1H-[1,4]diazepino[1,2-a]indole-8-carboxamide]
26.5 nM	O=C(Nc1cnn(Cc2ccccc2)c1)c1ccc2cc3n(c2c1)CC1(CCC1)CNC3=O [Example 138, N-(1-benzyl-1H-pyrazol-4-yl)-1′-oxo-2′,3′-dihydro-1′H-spiro[cyclobutane-1,4′-[1,4]diazepino[1,2-a]indole]-8′-carboxamide]
12 nM	Cc1cc(NC(=O)c2ccc3cc4n(c3c2)C(C)CCNC4=O)no1 (centres unmarked) [Example 159, 5-methyl-N-(5-methyl-1,2-oxazol-3-yl)-1-oxo-2,3,4,5-tetrahydro-1H-[1,4]diazepino[1,2-a]indole-8-carboxamide]
0.6 nM	C[C@@H]1CNC(=O)c2cc3ccc(C(=O)Nc4cnn(Cc5ccccc5)c4)cc3n21 [Example 130, (4R)-N-(1-benzyl-1H-pyrazol-4-yl)-4-methyl-1-oxo-1,2,3,4-tetrahydropyrazino[1,2-a]indole-7-carboxamide]
32 nM	O=C(Nc1cnn(Cc2ccccc2)c1)c1ccc2cc3n(c2c1)CC(F)(F)CNC3=O [Example 115, N-(1-benzyl-1H-pyrazol-4-yl)-4,4-difluoro-1-oxo-2,3,4,5-tetrahydro-1H-[1,4]diazepino[1,2-a]indole-8-carboxamide]
110 nM	Cn1cc(NC(=O)c2ccc3cc4n(c3c2)CCCNC4=O)ccc1=O [Example 116, N-(1-methyl-6-oxo-1,6-dihydropyridin-3-yl)-1-oxo-2,3,4,5-tetrahydro-1H-[1,4]diazepino[1,2-a]indole-8-carboxamide]
80 nM	C[C@H]1CCNC(=O)c2cc3ccc(C(=O)Nc4cnn(Cc5ccccc5)c4)cc3n21 [Example 144, (5S)-N-(1-benzyl-1H-pyrazol-4-yl)-5-methyl-1-oxo-2,3,4,5-tetrahydro-1H-[1,4]diazepino[1,2-a]indole-8-carboxamide]
